The source of these data is US20020156129A1, “Method of treating pruritus and a pharmaceutical composition for the method” (priority 2001, published 2002).

Molecules are shown by their SMILES.

Assay [1] has as its system ICR mice, cutaneous barrier function disrupted by acetone/diethylether and water. Briefly: Scratching action of mice with disrupted cutaneous barrier function, subcutaneous administration (Example 1). It counts as in vivo, mouse. The following applies: subcutaneous 10 mg/kg at barrier-disrupted site, 15 min before recording; scratching counted for 2 hours; mean ± standard error, 8 mice. The procedure:
A number of scratching action of 8 mice per 2 hours is shown by the average percentage±standard error based on the average of the control group (100%). “S” represents the control group which received saline, “L” represents L-NAME administrated group and “D” represents D-NAME administrated group.
The evaluation of the therapeutic effects of the pharmaceutical composition of the present invention may be conducted by using the small test animals produced by the method developed by the inventors, such as mice of which the cutaneous barrier function have been disrupted. Such animals may be produced according to the following procedure: An noninflammation dermal lesion caused by the disruption of cutaneous barrier function may be induced by degreasing the small test animals by applying an organic solvent to the glabrous skin of the animals and then treating with water. […] For example, the hydration of the stratum corneum can be determined by a technique of conductimetry, determination of electrostatic capacity or FT-IR method. Transepidermal water loss can be non-invasively determined with an electric measuring instrument or the like so as not to influence the scratching action. […]

In assay [2] the test system is NC mouse. The following applies: administration of NOS inhibitor; cited from earlier work.

Turning to `COC(=O)[C@H](N)CCCN=C(N)N[N+](=O)[O-]` [D-NAME, Nw-nitro-D-arginine methyl ester], the “number of the scratching action relative to saline control group (100%)” value in assay [1] was 90.9±15.2%. Consider `COC(=O)[C@@H](N)CCCNC(=N)N[N+](=O)[O-]` [L-NAME, Nw-nitro-L-arginine methyl ester], for which the “effect on scratching action” value in assay [2] is on record as “scratching action can be suppressed”. For the same compound, the “number of the scratching action relative to saline control group (100%)” value in assay [1] was 27.9±6.4%.
